These are literature values, as cited in US20230172203A1, “PLANT METABOLISM PROMOTING COMPOSITIONS AND METHODS OF USE” (Panoptic Ag Solutions LLC, priority 2021, published 2023).

Structures are written as SMILES.

This data set has as its system tea plants. To be noted: exogenous application; background statement; cited from earlier work.

Consider `CNC(=O)CC[C@H](N)C(=O)O` [γ-glutamylmethylamide], for which the “quality and yield of tea plants (in words)” value is “can improve the quality and yield of tea plants by increasing the number of usable leaves”.
